Experimental data published in patent US6632793B1, “Immunological activity for a peptide of the limulus anti-LPS factor” (Centro de Ingenieria Genetica y Biotecnologia, priority 1997, dated 2003).

Legend:
Type in all cases: cell-based
[1] = tested on: TNFα from human mononuclear cells; assay: TNF-α synthesis by human mononuclear cells (ELISA of supernatant); conditions: 18 h, mean of three donors
Method: Venous blood was obtained from healthy volunteers and Ficoll-Hypaque centrifugation, fractionated mononuclear cells. The mononuclear cells were washed and resuspended in endotoxic-free RPMI 1640 medium supplemented with 10% fetal calf serum. 30×10^6 cells were aliquoted into plates p-60 (Nunc, Denmark). The cells were incubated with 14 or 28 μg/ml LALF at 37° C. for 18 hours in 5% CO2 and then centrifuged at 3000 rpm during 5 min. The synthesis of TNFα in the supernatant was determined by specific enzyme-linked immunoadsorbent assay (ELISA), kindly provided by Dr. W. Buurman (University Hospital Maastrich, The Netherlands).

[2] = tested on: Mengo virus on cell line Hep-2; assay: Antiviral effect: inhibition of the cytopathic effect of Mengo virus on cell line Hep-2; conditions: 24 h pre-incubation; for Antiviral effect, 1: experiment 1; for Antiviral effect, 2: experiment 2; for Antiviral effect, 3: experiment 3; for Antiviral effect, Mean: mean of 3
Method: (§1) Then the cells were washed with saline solution and infected with […] of Mengo virus, provide by Institute of Molecular Biology, University of Zurich, which is multiplied in the cell line L929 murine fibroblasts. 18 h later degree of cell destruction was measured by fixation and staining, generally with crystal violet, for reading of cytophatic effect was used a photometer Ultramicroanalytical System (SUMA). A computer program in Pascal UCSD language for the microcomputer system was developed for all calculations and corrections (Ferrero et al., 1994, Biotecnologia Aplicada. Vol. 1:). In this case serial dilution's of human γ-IFN 70 000 IU/ml (MRI, Freeze-dried Reference Human Recombinant Gamma Interferon) was used as standard in order to define unit of antiviral activity. For this reason the antiviral protection shown by the peptide is related to International Units of γ-IFN (Ul/ml). As a negative control were used different peptides from proteins that bind endotoxin. LPS at 10 ng/ml was used as a positively control because is well known that it induced the production of IFNs (Manthey et al., 1994, J. Immunology. Vol. 153: 2653-2663). One unit of antiviral activity is define as the quantity of IFN able to produce an 50% inhibition of the viral replication.

[3] = tested on: human mononuclear cells; assay: Antiviral effect on Hep-2 cells of supernatant from human mononuclear cells stimulated with peptide; conditions: for Antiviral effect of supernatant, 1: supernatant on Hep-2, experiment 1; for Antiviral effect of supernatant, 2: supernatant on Hep-2, experiment 2; for Antiviral effect of supernatant, 3: supernatant on Hep-2, experiment 3; for Antiviral effect of supernatant, Mean: supernatant on Hep-2, mean of 3
Method: as §1
Venous blood was obtained from healthy volunteers and Ficoll-Hypaque centrifugation, fractionated mononuclear cells. The mononuclear cells were washed and resuspended in endotoxin-free RPMI-1640 culture medium supplemented with 10% fetal calf serum. Concentration of 2×10^6 cells/ml were aliquoted into 24-well microtiter plates (Nunc, Denmark). The cells were then incubated with 14 and 28 μg/ml of different peptides: Limulus anti-LPS factor31-52 (LALF), Lipopolysaccharide Binding Protein86-99 (LBP) and 18 kDa Cationic Antimicrobial Protein108-128 (CAP-18), at 37° C. for 18 hours in 5% CO2. The cells were centrifuged at 3000 rpm for 5 min and then serial dilutions of supematants were assays for antiviral activity using the procedures described in the example 2.

[4] = mononuclear cells stimulated with 14 μg/ml for 18 h
[5] = mononuclear cells stimulated with 28 μg/ml for 18 h

Substance: CAP-18 [reference compound]
- TNF - α ([1]; 14 μg/ml): 0.76 ng/mL
- TNF - α ([1]; 28 μg/ml): 0.75 ng/mL
- Antiviral effect, 1 ([2]; Hep-2, 14 μg/ml): 9 IU/ml γ-IFN
- Antiviral effect, 2 ([2]; Hep-2, 14 μg/ml): 8.7 IU/ml γ-IFN
- Antiviral effect, 3 ([2]; Hep-2, 14 μg/ml): 9.2 IU/ml γ-IFN
- Antiviral effect, Mean ([2]; Hep-2, 14 μg/ml): 8.9 IU/ml γ-IFN
- Antiviral effect, 1 ([2]; Hep-2, 28 μg/ml): 12.2 IU/ml γ-IFN
- Antiviral effect, 2 ([2]; Hep-2, 28 μg/ml): 9 IU/ml γ-IFN
- Antiviral effect, 3 ([2]; Hep-2, 28 μg/ml): 9 IU/ml γ-IFN
- Antiviral effect, Mean ([2]; Hep-2, 28 μg/ml): 10.9 IU/ml γ-IFN
- Antiviral effect of supernatant, 1 [3, 4]: 7.8 IU/ml γ-IFN
- Antiviral effect of supernatant, 2 [3, 4]: 8 IU/ml γ-IFN
- Antiviral effect of supernatant, 3 [3, 4]: 11 IU/ml γ-IFN
- Antiviral effect of supernatant, Mean [3, 4]: 8.93 IU/ml γ-IFN
- Antiviral effect of supernatant, 1 [3, 5]: 8.2 IU/ml γ-IFN
- Antiviral effect of supernatant, 2 [3, 5]: 9 IU/ml γ-IFN
- Antiviral effect of supernatant, 3 [3, 5]: 9.6 IU/ml γ-IFN
- Antiviral effect of supernatant, Mean [3, 5]: 8.93 IU/ml γ-IFN
